The source of these data is ChEMBL document CHEMBL1201862, “PubChem BioAssay data set” (2004).

Activity calls are given as the source filed them.

The nature of experiment [1]: viability loss in HeLa cells – cytotoxicity control for MgcRacGAP inhibitor project, dose response (AID 624300). Format: functional.
In experiment [2] the target is Intestinal-type alkaline phosphatase (Homo sapiens, UniProt P09923). The experiment can be described thus: Dose Response confirmation of uHTS hits from a small molecule inhibitors of human intestinal alkaline phosphatase via a luminescent assay. [Related pubchem assays (depositor defined):AID2544, AID2574]. The format is functional.
Sequence of Intestinal-type alkaline phosphatase (P09923 whole entry, the tested form may be a part): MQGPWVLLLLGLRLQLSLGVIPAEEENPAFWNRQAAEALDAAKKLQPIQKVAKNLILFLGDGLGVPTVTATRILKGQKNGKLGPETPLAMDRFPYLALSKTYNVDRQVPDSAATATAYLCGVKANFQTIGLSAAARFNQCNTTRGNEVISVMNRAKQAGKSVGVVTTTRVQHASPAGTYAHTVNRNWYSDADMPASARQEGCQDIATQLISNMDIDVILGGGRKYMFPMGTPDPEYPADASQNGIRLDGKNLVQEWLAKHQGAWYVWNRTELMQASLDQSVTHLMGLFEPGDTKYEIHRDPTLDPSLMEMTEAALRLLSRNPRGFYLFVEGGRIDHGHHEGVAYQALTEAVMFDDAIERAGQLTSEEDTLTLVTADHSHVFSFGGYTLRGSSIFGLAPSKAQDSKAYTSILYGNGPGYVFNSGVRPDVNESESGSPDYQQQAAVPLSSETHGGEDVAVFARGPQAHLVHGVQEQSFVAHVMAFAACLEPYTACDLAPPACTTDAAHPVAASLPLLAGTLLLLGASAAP
The target in the next experiment is Perilipin-1/ABHD5 (Homo sapiens, UniProt O60240+Q8WTS1). The experiment in a line: Luminescence-based biochemical high throughput dose response assay for inhibitors of the interaction of the lipase co-activator protein, abhydrolase domain containing 5 (ABHD5) with perilipin-1 (PLIN1) (2K validation set). [Related pubchem assays (depositor defined):AID493027, AID493057].
Sequence of Perilipin-1/ABHD5 (Q8WTS1 whole entry, the tested form may be a part): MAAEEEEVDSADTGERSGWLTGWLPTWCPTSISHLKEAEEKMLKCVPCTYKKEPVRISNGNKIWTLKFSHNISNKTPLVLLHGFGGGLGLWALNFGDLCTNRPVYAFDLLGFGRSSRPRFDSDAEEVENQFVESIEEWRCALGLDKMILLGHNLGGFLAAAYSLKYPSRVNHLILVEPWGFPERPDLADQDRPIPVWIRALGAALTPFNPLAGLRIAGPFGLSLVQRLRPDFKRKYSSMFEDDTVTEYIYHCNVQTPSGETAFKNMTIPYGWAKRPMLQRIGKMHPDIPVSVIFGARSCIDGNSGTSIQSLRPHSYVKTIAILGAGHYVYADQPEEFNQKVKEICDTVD
Sequence of Perilipin-1/ABHD5 (O60240 whole entry, the tested form may be a part): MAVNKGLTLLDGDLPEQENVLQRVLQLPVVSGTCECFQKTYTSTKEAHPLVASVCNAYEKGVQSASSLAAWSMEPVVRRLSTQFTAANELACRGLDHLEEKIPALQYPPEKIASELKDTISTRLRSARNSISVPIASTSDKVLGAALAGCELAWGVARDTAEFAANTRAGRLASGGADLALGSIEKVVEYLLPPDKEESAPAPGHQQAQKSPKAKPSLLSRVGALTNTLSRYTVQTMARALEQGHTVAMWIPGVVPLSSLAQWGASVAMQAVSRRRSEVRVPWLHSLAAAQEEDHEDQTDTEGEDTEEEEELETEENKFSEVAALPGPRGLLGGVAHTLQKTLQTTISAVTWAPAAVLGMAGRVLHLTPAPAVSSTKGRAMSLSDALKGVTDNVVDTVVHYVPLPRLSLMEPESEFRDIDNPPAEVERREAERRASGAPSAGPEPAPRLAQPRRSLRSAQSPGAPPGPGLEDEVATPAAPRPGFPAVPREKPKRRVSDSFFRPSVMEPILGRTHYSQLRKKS

Experiment [3] has as its target 1-acylglycerol-3-phosphate O-acyltransferase ABHD5/Perilipin-5 (Homo sapiens, UniProt Q00G26+Q8WTS1). The experiment can be described thus: Luminescence-based biochemical high throughput dose response assay for inhibitors of the interaction of the lipase co-activator protein, abhydrolase domain containing 5 (ABHD5) with perilipin-5 (MLDP; PLIN5) (2K validation set). [Related pubchem assays (depositor defined):AID493035, AID493241].

Experiment [4] deals with Eukaryotic translation initiation factor 4E (Mus musculus, UniProt P63073). The experiment in a line: blockers of eIF4G binding by eIF4E – biochemical, TR-FRET, dose response (AID 855).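 Further: potency for disrupting eIF4E binding to eIF4GI seen as loss of FRET.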 The format is functional. Background: Time-resolved FRET reads energy transfer from a long-lived donor to a nearby acceptor.
Sequence of Eukaryotic translation initiation factor 4E (P63073 whole entry): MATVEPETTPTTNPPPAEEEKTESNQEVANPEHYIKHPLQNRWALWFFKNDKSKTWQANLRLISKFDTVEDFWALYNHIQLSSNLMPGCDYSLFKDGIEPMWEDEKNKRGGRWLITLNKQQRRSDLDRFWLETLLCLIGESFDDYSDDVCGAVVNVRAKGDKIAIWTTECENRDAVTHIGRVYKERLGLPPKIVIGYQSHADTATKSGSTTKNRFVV
The target of experiment [5] is G-protein coupled receptor 55 (Homo sapiens, UniProt Q9Y2T6). The experiment can be described thus: SAR analysis of selective Agonists of GPR55 using an Image-Based Assay. [Related pubchem assays (depositor defined):AID1961, AID1965]. Format: functional.
Sequence of G-protein coupled receptor 55 (Q9Y2T6 whole entry): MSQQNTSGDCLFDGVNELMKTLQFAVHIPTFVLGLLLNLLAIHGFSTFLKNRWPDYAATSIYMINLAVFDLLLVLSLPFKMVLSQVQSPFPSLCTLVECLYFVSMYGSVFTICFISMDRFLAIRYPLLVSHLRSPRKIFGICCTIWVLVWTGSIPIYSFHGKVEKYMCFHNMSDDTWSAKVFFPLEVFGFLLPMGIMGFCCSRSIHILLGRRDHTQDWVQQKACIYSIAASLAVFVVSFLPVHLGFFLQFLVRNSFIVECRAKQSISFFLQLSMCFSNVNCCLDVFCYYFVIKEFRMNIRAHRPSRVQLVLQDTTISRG
The target in experiment [6] is T1, Cannabinoid receptor 2 (Homo sapiens, UniProt P34972). The experiment in a line: SAR analysis of antagonists of the Cannabinoid Receptor 2 using an Image-Based Assay - Set 2. [Related pubchem assays (depositor defined):AID1961, AID1965]. The format is functional.
T1 sequence (P34972 whole entry): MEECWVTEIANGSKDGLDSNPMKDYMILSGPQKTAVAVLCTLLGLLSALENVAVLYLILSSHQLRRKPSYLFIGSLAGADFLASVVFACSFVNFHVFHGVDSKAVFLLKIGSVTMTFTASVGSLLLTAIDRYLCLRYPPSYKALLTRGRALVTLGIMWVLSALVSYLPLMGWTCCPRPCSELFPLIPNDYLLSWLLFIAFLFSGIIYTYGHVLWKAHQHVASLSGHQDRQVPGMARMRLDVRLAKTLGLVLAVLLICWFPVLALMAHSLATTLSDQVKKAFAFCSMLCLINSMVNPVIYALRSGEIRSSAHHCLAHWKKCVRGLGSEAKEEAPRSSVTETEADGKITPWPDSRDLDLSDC
In experiment [7] the target is T1, Cannabinoid receptor 2. The experiment in a line: SAR analysis of agonists of the Cannabinoid Receptor 2 using an Image-Based Assay - Set 2. [Related pubchem assays (depositor defined):AID1961, AID1965]. The format is functional.
A further experiment concerns the target Cannabinoid receptor 1 (Homo sapiens, UniProt P21554). The experiment can be described thus: SAR analysis of antagonists of the Cannabinoid Receptor 1 using an Image-Based Assay. [Related pubchem assays (depositor defined):AID1961, AID1965]. The format is functional.
For experiment [8], the target named is T2, Small ubiquitin-related modifier 1 (Homo sapiens, UniProt P63165). The experiment can be described thus: SUMO1 protein-protein binding blockers, potency – biochemical, FRET, dose response (AID 624383). Format: functional. The note with it: read-out: IC50_Mean.
T2 sequence (P63165 whole entry): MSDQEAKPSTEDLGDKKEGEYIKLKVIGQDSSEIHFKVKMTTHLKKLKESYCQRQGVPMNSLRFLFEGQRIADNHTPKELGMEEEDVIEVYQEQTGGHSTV
Experiment [9] addresses T3, Dual specificity protein phosphatase 6 (Rattus norvegicus, UniProt Q64346).
T3 sequence (Q64346 whole entry): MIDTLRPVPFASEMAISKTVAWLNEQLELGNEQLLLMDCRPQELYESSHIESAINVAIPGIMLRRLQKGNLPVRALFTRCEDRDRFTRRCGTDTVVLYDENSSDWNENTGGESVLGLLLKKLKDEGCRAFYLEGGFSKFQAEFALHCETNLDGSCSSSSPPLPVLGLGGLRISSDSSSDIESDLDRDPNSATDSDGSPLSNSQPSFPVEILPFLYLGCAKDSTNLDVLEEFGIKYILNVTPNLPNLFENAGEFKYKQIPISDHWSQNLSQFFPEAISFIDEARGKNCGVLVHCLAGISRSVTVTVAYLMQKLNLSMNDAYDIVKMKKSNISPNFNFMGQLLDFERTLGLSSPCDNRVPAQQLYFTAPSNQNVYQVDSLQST
The experiment can be described thus: inhibition of rat DUSP6 enzyme activity – biochemical, in vitro, primary screen (AID 425).

Experiment [10] has as its target T4, Dual specificity protein phosphatase 3 (Homo sapiens, UniProt P51452). The experiment can be described thus: VHR1 phosphatase inhibitors, primary screen, biochemical, absorbance, uHTS (AID 1654).
Experiment [11] is described as follows: inhibition of ARNT PAS-B/TACC3 complex formation – biochemical, AlphaScreen, cherry-picked samples, confirmation (AID 651703).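 Further: His-tagged ARNT PAS-B domain paired with GST-TACC3 E629A dimer coactivator fragment; potency of inhibitors that break up the complex and lower AlphaScreen signal.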 Format: functional, Homo sapiens. Background: Bead proximity is the source of the signal in Alpha formats.
Experiment [12] addresses T2, Small ubiquitin-related modifier 1. The experiment can be described thus: SUMO1 protein interaction blockers, potency – biochemical, fluorescence polarization, uHTS hits, dose response (AID 624382). The format is functional. The note with it: read-out: IC50_Mean. Background: Fluorescence polarisation rises when a labelled molecule tumbles more slowly, as on binding a larger partner.

Another experiment deals with Genome polyprotein (dengue virus type 2, UniProt P29990). The experiment can be described thus: flavivirus cap methylation enzyme inhibition – biochemical, confirmation dose response, primary screen (AID 588689). The format is functional.
Sequence of Genome polyprotein (P29990 2492-3391 limits assumed): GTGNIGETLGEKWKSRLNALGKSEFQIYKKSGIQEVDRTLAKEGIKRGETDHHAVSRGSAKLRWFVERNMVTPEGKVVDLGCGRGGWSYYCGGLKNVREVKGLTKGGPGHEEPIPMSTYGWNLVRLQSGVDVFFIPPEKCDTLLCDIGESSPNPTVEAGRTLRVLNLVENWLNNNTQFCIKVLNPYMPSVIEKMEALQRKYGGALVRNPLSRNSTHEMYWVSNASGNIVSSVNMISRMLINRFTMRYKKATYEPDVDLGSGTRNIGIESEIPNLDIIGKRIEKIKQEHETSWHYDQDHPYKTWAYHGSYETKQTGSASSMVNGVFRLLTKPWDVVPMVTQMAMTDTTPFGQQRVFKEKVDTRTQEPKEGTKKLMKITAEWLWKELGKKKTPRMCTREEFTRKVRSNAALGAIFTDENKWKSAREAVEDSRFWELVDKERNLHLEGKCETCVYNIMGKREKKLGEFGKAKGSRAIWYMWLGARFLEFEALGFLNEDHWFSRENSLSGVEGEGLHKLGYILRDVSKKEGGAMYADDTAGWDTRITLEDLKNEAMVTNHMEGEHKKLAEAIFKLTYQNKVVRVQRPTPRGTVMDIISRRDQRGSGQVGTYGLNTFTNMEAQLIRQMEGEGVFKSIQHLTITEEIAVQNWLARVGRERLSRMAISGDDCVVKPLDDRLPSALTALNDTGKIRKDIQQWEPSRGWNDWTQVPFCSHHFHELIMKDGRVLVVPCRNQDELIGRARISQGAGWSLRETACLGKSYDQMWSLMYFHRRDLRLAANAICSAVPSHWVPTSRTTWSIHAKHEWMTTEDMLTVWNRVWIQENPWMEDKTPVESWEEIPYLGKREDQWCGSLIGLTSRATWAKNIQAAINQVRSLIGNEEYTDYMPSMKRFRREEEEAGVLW
The next experiment has as its system Vero. The experiment can be described thus: viability of Vero cells under compound – cytotoxicity control for flavivirus capping enzyme inhibitors (AID 588742). The note with it: Chlorocebus sabaeus. The format is functional.
For experiment [13], the target named is T5, Carboxy-terminal domain RNA polymerase II polypeptide A small phosphatase 1 (Homo sapiens, UniProt Q9GZU7).
T5 sequence (Q9GZU7 whole entry): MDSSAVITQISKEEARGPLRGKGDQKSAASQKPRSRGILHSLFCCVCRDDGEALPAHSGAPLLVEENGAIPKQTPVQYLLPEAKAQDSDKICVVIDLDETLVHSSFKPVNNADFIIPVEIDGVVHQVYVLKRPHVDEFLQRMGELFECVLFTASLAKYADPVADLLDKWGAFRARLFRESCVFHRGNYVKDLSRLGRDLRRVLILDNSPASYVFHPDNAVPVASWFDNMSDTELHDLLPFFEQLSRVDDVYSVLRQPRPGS
The experiment can be described thus: CTDSP1 inhibitors, concentration-response, biochemical, absorbance readout, ultra-high-throughput screen actives (AID 540297). Format: functional.

Experiment [14] concerns the target T4, Dual specificity protein phosphatase 3. The experiment in a line: VHR1 phosphatase inhibitors, biochemical (AID 1878).
For experiment [15], the target named is T6, Ubiquitin-conjugating enzyme E2 N (Homo sapiens, UniProt P61088).
T6 sequence (P61088 whole entry): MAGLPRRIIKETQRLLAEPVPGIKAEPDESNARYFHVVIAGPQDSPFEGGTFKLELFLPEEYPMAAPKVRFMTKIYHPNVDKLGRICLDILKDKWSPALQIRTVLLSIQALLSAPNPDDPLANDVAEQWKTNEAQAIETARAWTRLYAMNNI
The format is functional.

The target of experiment [16] is T6, Ubiquitin-conjugating enzyme E2 N. Format: functional. This is another data set of the same source.
The next experiment deals with T7, Bcl-2-related protein A1 (Mus musculus, UniProt Q07440).
T7 sequence (Q07440 whole entry): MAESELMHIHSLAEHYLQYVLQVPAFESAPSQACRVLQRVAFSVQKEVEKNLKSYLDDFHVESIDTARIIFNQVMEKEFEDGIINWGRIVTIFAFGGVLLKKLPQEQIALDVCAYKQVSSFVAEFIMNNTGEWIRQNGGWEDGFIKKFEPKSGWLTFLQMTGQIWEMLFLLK
Format: functional.

T4 sequence (P51452 whole entry, the tested form may be a part): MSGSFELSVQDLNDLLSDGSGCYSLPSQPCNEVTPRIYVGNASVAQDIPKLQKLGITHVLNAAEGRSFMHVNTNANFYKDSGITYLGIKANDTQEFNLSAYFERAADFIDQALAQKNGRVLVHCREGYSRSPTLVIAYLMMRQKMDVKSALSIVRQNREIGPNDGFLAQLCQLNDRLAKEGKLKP
Sequence of 1-acylglycerol-3-phosphate O-acyltransferase ABHD5/Perilipin-5 (Q00G26 whole entry, the tested form may be a part): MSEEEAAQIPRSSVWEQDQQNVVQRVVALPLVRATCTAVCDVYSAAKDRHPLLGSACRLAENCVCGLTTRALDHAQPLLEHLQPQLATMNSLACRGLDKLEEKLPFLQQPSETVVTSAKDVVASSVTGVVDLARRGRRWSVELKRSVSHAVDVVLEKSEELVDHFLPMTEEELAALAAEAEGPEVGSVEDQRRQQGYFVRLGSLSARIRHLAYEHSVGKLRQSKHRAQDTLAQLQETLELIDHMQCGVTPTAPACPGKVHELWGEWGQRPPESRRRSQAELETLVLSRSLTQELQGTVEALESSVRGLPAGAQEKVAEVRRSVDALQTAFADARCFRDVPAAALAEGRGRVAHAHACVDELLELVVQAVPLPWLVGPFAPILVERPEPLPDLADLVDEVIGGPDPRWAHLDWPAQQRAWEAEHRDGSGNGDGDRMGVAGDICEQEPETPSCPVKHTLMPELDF
Sequence of 1-acylglycerol-3-phosphate O-acyltransferase ABHD5/Perilipin-5 (Q8WTS1 whole entry, the tested form may be a part): as the sequence (Q8WTS1 whole entry, the tested form may be a part) above
Sequence of Cannabinoid receptor 1 (P21554 whole entry): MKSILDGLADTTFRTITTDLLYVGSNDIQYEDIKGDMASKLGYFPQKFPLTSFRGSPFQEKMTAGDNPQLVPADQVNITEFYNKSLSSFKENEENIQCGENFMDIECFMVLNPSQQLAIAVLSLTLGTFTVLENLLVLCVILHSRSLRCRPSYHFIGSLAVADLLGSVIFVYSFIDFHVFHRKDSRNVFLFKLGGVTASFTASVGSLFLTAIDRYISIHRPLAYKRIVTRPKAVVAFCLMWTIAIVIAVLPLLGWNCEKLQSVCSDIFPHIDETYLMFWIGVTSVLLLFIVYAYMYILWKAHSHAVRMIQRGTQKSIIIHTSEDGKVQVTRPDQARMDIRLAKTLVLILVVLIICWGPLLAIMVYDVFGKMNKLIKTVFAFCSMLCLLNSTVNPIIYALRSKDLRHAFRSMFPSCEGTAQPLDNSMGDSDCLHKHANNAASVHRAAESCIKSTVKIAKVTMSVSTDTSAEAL

On to `CC(=O)Nc1cccc(-c2csc(Nc3ccccn3)n2)c1`, for which the CC50 in experiment [1] was 94.2 µM (active). Moreover, the IC50 in [2] was > 100 µM (inactive).

As to `O=C(/C=C/c1ccccc1)c1ccccc1` [CHALCONE], the IC50 on Perilipin-1/ABHD5 is 4.19 µM (active); in experiment [3], 4.25 µM (active).

Take `COc1cc(/C=C(\C#N)C(=O)N2CCc3ccccc32)ccc1O`: the values for the IC50 (in experiment [4]; at Perilipin-1/ABHD5; in experiment [3]) were 50 µM (inactive), 21.4 µM (inactive) and > 26.5 µM (inactive), respectively.

With `C/C(C=NNC(=O)c1nnn(-c2nonc2N)c1CN1CCC(C)CC1)=C/c1ccccc1`, the figures for the EC50 (in [5]; at Cannabinoid receptor 2 [7]) were 0.681 µM (active) and > 32 µM (inactive), respectively. For the same compound, the IC50 at Cannabinoid receptor 2 [6] and on Cannabinoid receptor 1 was > 32 µM (inactive) in each case.

Consider `Cc1c(CCC(=O)O)c(=O)oc2c(C)c3occ(-c4ccc(Br)cc4)c3cc12`, for which the IC50 in experiment [8] was 12.6 µM (active); in [9], 69.2 µM (active); in experiment [10], 11.1 µM (active); in experiment [12] it was > 66.6 µM (inactive); on Genome polyprotein, 33.2 µM (active); in experiment [13], 3.57 µM (active). Moreover, the IC50 in experiment [14] was 11.3 µM (active). Besides, the AC50 in [11] was 99.5 µM (active). In addition, the CC50 with Vero is > 40 µM (active).

As for `NC(=S)N=Nc1c(O)n(C2OC(=O)c3ccccc32)c2ccccc12` (stereo not drawn), the figures for the IC50 (in [15]; in experiment [16]; at Bcl-2-related protein A1) were 2.38 µM (active), 3.62 µM (active) and > 20 µM (inactive), respectively.

In general, CC50 refers to the concentration giving 50% cytotoxicity. Broadly, the EC50 is the concentration that produces a half-maximal response. The term AC50 denotes the concentration at which the activity in the assay is half-maximal.
